Measured values reported in patent publication US10183039B2, “Methods for the production of collagen IV” (Vanderbilt University, priority 2013, dated 2019).

Experiments:
human peroxidasin = human peroxidasin (Homo sapiens, UniProt Q92626); settings: compared with reagent-grade PBS (FIG. 8D)
Protocol: (FIG. 8A) Matrix pellets isolated from KI-treated PFHR9 cell culture were extensively washed into 10 mM phosphate buffer (pH 7.4) supplemented with 100 mM KF to maintain ionic strength. Potassium salts of Cl— or Br— were added in indicated amounts. 1 hr reactions at 37° C. were initiated by addition of H2O2 to 1 mM and stopped by freezing at −20° C. […] Reagent KCl was commercially obtained and unaltered prior to analysis. 100 mM solutions were made with 18MΩ deionized water. (FIG. 8C) Coomassie blue stained gel of collagenase digested PFHR-9 matrix reaction assay. Reaction buffered contained 10 mM phosphate buffer (pH 7.4), 100 mM Br-Free or Commercially obtained reagent grade KCl, as well as 1 mM H2O2 and 200 μM PHG where appropriate. […] Reactions were run for 10 minutes at 37° C. with 10 μM H2O2 as the terminal oxidant. Dose-response curve run in the presence of 1× Br-Free PBS. Reactions were quenched with 0.2 mg/ml Catalase, 20 mM Methionine, and 1 mM PHG. EC50 value±95% C.I. from two independent experiments with each data point plotted and fit.
HEK293 cells stably transfected with the human peroxidasin coding sequence27 were grown to confluency, and the medium was changed to serum-free DMEM/F12 plus 5 μM hematin plus 5 mM sodium butyrate. […]

[1] = system: Drosophila melanogaster w1118; settings: in vivo
Protocol: FIGS. 11A-C. […] WT Eggs from 3 day Br-depleted and Br-Added females were collected and transferred to new 35 mm culture dishes filled with 3 ml of vitamin and mineral spiked phytagel as the semi-solid support. 100 μL of Yeast paste±100 μM Br—(200 mg yeast/500 μL ddH2O) was added to the center of each dish. Larvae were transferred to fresh dishes and counted every 24-36 hours. WT flies were reared in the presence of 80 mM total Br-Free NaCl. For Br-Added conditions, both the phytagel and yeast paste were spiked with 100 μM NaBr to ensure constant and consistent exposure. Adults were fed identical food as part of the depletion regime. PxnF07229 homozygous larvae were separated from heterozygous larvae and collected 48 hours after hatching on a Br-Free vs Br-Added plates from parents fed a standard diet. After transfer to these fresh Br-experimental diet plates, they were transferred and counted similarly to the WT larvae under normal 20 mM NaCl conditions. The experimental cohorts [Br-Free (n=34), Br-Added (n=40), Br-Free PxnF07229 (n=14), and Br-Added PxnF07229 (n=19)] were followed until death or 2-days after eclosion of the last fly in the cohort. […] Scale bars in the insets represent 200 μm, and in the whole pictures 500 μm. The image of PxnF07229 larvae is from a Br-Added experimental diet. (FIG. 11C) Representative pictures of the corresponding gut dissections to FIG. 11B. Scale bars are 500 μm.
(FIG. 17A) Generational Br-depletion scheme (FIG. 17B). Generation 1 survival and time-to-development curves for w^1118 flies on the standard diet vs experimental diets. Embryos from mothers fed a standard diet were placed on the indicated diet, and progeny were scored every 24 hours. […] Data plotted as the group median±interquartile range. N=30 for each group. […] (FIG. 17C) Generation 2 developmental survival on experimental diets. n>40 for each cohort. Tested by Log-Rank test. (FIG. 17D) Percentage of eggs (mean+/−95% C.I.) completing embryogenesis from mothers reared on Br-free^DEP or Br-added^DEP diets for […]. In the Br-free^DEP experimental group, mothers were fed Br-free synthetic diet containing 80 mM total NaCl (Br-free^DEP) for 3 days prior to egg collection. The Br-added^DEP was treated in the same manner except that 100 μM NaBr was added to all food components of the Br-free^DEP synthetic diet. […] Analyzed by the Mann-Whitney U test. (FIG. 17E) Survival curve for w^1118 flies under Br-free^DEP or Br-added^DEP dietary conditions. […] Associated larval Br-content was measured by EINAA. Bonds/hexamer were calculated from the Western blot. […] BMs from 15 independent sections for each group were evaluated for thickness and the histograms plotted. […]

human peroxidasin, sequence (Q92626 27-1479): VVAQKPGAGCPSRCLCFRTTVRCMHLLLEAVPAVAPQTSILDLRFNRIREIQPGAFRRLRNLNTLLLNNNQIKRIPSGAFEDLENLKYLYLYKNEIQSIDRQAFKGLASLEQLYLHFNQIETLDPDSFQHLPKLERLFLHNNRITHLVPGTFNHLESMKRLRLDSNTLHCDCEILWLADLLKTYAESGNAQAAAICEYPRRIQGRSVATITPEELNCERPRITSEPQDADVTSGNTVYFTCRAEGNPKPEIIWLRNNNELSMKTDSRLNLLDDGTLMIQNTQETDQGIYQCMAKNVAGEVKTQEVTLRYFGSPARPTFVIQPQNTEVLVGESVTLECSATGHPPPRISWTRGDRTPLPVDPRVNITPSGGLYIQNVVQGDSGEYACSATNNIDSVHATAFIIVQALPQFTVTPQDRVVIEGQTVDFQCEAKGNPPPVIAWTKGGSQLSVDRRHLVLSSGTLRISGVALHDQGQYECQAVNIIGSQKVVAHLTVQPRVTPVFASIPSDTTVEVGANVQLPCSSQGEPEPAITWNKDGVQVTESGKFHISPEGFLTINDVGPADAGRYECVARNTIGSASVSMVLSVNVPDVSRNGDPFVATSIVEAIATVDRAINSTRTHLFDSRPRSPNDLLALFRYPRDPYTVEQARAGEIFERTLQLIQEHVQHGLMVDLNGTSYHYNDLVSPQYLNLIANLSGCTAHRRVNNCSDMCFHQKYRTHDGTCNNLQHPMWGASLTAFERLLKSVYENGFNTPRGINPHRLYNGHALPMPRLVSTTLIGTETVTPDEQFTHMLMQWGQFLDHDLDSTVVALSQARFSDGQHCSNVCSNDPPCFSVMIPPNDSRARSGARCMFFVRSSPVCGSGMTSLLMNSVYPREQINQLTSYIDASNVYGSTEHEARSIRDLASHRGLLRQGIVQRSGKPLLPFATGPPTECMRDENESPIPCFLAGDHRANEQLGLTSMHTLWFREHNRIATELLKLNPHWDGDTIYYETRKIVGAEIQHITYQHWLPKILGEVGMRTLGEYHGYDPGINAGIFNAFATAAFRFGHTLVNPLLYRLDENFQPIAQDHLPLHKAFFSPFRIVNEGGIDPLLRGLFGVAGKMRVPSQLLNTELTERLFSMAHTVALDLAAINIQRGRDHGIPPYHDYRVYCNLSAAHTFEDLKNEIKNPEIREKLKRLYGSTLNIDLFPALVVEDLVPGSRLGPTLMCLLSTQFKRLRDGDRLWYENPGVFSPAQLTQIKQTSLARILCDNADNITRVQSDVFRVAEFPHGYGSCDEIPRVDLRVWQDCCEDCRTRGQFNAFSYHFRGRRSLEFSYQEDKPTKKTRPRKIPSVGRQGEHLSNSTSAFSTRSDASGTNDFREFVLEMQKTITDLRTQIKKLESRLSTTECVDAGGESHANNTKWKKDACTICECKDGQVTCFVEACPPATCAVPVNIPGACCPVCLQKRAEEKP
Protocol for PFHR-9 cells: (FIG. 10A) The murine PFHR-9 cell-culture model of basement membranes was cultured for 7 days in the presence of either commercial DMEM+5% FBS or adapted Br-Free DMEM +5% FBS dialyzed against Br-Free HBSS. Media was changed every 24 hours with the addition of 50 μg/ml ascorbic acid and NaBr added where noted. The cell deposited matrix was harvested, collagenase digested, and subjected to SDS-PAGE. NC1 crosslinking content is graphed as the mean±95% C.I. (n=3) with a representative gel depicted.
Bromine was systematically eliminated from DMEM by making the media from individual components without chloride counter ions, and using Br-Free chloride as the only halide source.

SMILES: Br [bromide]
- S═N bond formation on Br addition to Br-Free PBS (human peroxidasin): recued the degree of S═N bond formation observed in reagent-grade PBS
- Generation 2 larval survival [1]: rescued
- developmental progression of PxnF07229 larvae [1]: unable to promote developmental progression
- median time to eclosion [1]: 10 days
- median time to pupariation [1]: 6 days
- S═N crosslinking in the collagen IV matrix (PFHR-9 cells): rescued physiologic levels of crosslinking
- cell proliferation, viability, collagen IV synthesis (PFHR-9 cells): no observable difference in cell proliferation, viability, or collagen IV synthesis
